Measured values published in patent publication US20090170899A1, “Stimulators of 5-HT4 receptors and uses thereof” (priority 2004, published 2009).
“Also recorded” adds a separate entry of the source.

Key:
Format in all cases: in vivo, rat
[1] = test system: hippocampal CA3 pyramidal neurons; assay: Response of hippocampal CA3 pyramidal neurons to WAY 100635 after 3-day treatments (5-HT1A tonus)
Experimental: FIGS. 8A to 8C. […] Single-cell extracellular recordings were performed in the CA3 region of chloral-hydrate anaesthetized rats by using multiple-barrel glass microelectrodes, combined with microiontophoretic pumps (with the central barrel used for recordings). Pyramidal neurons were identified according to the classical criteria (see Example 5, the experimental procedures). The 5-HT4 agonists were administered through the use of osmotic minipumps, inserted subcutaneously in the region of the back. Recordings were performed with the minipumps still in place. *p<0.05, **p<0.01, ***p<0.001 vs control, Dunnett's test. […] FIG. 8C is a typical example showing the response of a single pyramidal neuron to cumulative doses of WAY 100635, in a rat co-administered with RS 67333 (same treatment as above for FIG. 8A) and the 5-HT depleter para-chlorophenylalanine (pCPA; 150 mg/kg, i.p. once daily 72, 48 and 24 h before the recordings).
Drugs and Chemicals. The following compounds were used: GR 125487 sulphamate, prucalopride monohydrochloride, citalopram hydrobromide (gifts from Glaxo, Janssen and Lundbeck laboratories, respectively), RS 67333 hydrochloride (Tocris Cookson Inc., Ellisville, Mo., USA), WAY 100635 hydrochloride (Research Biochemicals, Natick, Mass., USA), pCPA methyl ester hydrochloride, BrdU (Sigma-Aldrich Canada, Oakville, Ontario, Canada). All compounds were diluted in distilled water. All drug dosages refer to the free base. For chronic treatments, prucalopride (2.5 mg/kg/day), RS 67333 (1.5 mg/kg/day) or the vehicle were delivered through osmotic minipumps (Alza, Palo Alto, Calif., USA), inserted subcutaneously in the region of the back under short-duration (≦5 min) halothane anesthesia. The 5-HT depleter PCPA was administered once daily at the dose of 150 mg/kg, i.p., 72, 48 and 24 h before the recordings. BrdU treatments consisted of two administrations per day (50 mg/kg, i.p. each, 8 h interval), starting from the day of minipump insertion until day 2 post-surgery.
(§1) Microiontophoresis and extracellular recordings from hippocampal CA3 pyramidal neurons. Recording and microiontophoresis were performed with five-barreled glass micropipettes broken back to 8-12 μm under microscope control. The central barrel was filled with the same solution as in the DRN and was used for extracellular unitary recordings. Pyramidal neurons were identified by their large amplitude (0.5-1.2 mV) and long-duration (0.8-1.2 ms) simple spikes alternating with complex spike discharges (Kandel and Spencer, 1961). The side barrels contained the following solutions: quisqualate (1.5 mM in 200 mM NaCl, pH 8), WAY 100635 (15 mM in 200 mM NaCl, pH 4), and 2 M NaCl used for automatic current balancing. Rats were mounted in the stereotaxic apparatus and the micropipettes were lowered at 4.2 mm lateral and 4.2 anterior to lambda into the CA3 sub-region of the dorsal hippocampus.
The firing activity of dorsal hippocampus pyramidal neurons was then recorded in the CA3 subfield, before and after systemic administration of the selective 5-HTLA antagonist WAY 100635.

DRN 5-HT neurons = assay: Extracellular single-unit recordings of DRN 5-HT neuron mean firing rate in anaesthetized rats
Experimental: In a second part of the study, the selective 5-HT4 agonists prucalopride (Briejer et al., 2001) and RS 67333 (Eglen et al., 1995) were administered either subacutely (i.e. 30 min before the beginning of recordings), or continuously through the use of osmotic minipumps during 3 or 21 days. The selective 5-HT4 antagonist GR 125487 (Gale et al., 1994) was also used to confirm the involvement of 5-HT4 receptors in the effects of the agonists. Successive single-cell extracellular recording tracks were then performed along the DRN of anaesthetized rats. This set of experiments was performed in order to globally assess the effect of such treatments on the mean activity of 5-HT neurons.
Pharmacological treatments. All the 3 different 5-HT4 pharmacological agents were diluted in a solution of physiological saline (NaCl 0.9%), and administered in a dose range known to induce significant binding on 5-HT4 sites (Lucas and Debonnel, 2002; Lamirault and Simon, 2001; Porras et al., 2002). In subacute experiments, prucalopride, RS 67333 or their vehicle were administered i.p. 30 min. before the beginning of recordings. For chronic treatments (both 3 and 21 days), prucalopride, RS 67333 or their vehicle were delivered through osmotic minipumps (Alza, Palo Alto, Calif.) inserted subcutaneously. Electrophysiological recordings were performed with the minipumps in place. […] In a separate set of experiments, the 5-HT4 antagonist GR 125487 was tested in animals treated for 3 days with either prucalopride or RS 67333. Two DRN tracks were first performed, then GR 125487 was administered i.v. (via a lateral vein of the tail) and 2-3 additional tracks were performed, starting 30 min. after the injection. All drug dosages refer to the free base.
Extracellular recordings of DRN 5-HT neurons. Recordings were performed using single-barreled glass micropipettes. Electrodes were filled with a 2 M NaCl solution saturated with Fast Green FCF, resulting in an impedance of 2-5 MΩ. Rats were anaesthetized with chloral hydrate (400 mg/kg, i.p.) and placed in a stereotaxic frame. A burr hole was drilled on the midline 1 mm anterior to lambda. DRN 5-HT neurons were encountered over a distance of 1 mm starting immediately below the ventral border of the Sylvius aqueduct. These neurons were identified using the classical criteria: a slow (0.5-2.5 Hz) and regular firing rate and long-duration (0.8-1.2 ms) positive action potentials (Aghajanian, 1978). In each animal, four to five successive descents were performed along the DRN, and a total of 10-16 cells was recorded. At the end of the experiments, a 25 μA cathodal current was passed through the recording electrode to leave a Fast Green deposit at the recording site. Animals were sacrificed with an i.v. overdose of chloral hydrate, and the brain removed. The site of recording was verified under microscope immediately after experiments.
Statistical analysis. In each experimental group, data were expressed as means±S.E.M. of all the recorded neurons, unless otherwise specified. The effects of the different 5-HT4 agonist administrations on the firing activity of DRN 5-HT neurons was assessed using one-way ANOVAs, followed by the post-hoc Dunnett's test when significant. The influence of GR 125487 on the effect of a 3-day treatment with prucalopride or RS 67333 was assessed using two-way ANOVAs followed by the post-hoc Tukey's test. In all cases, p<0.05 was chosen as the criterion of significance.

[2] = test system: hippocampal CA3 pyramidal neurons; assay: Acute i.v. prucalopride on firing of hippocampal CA3 pyramidal neurons, with microiontophoresis
Experimental: FIGS. 9A to 9D. FIGS. 9A and 9C show a typical example (integrated firing rate histogram) of the response of a single hippocampal pyramidal neuron of the CA3 sub-field to an acute, intravenous administration of the selective 5-HT4 agonist prucalopride (1000 μg/kg), and its reversal by local, microiontophoretic application of the selective 5-HT1A antagonist WAY 100635 (A), or systemic injection of the selective 5-HT4 antagonist GR 125487 (1000 μg/kg, i.v.) (C). Single-cell extracellular recordings were performed in the CA3 region of chloral-hydrate anaesthetized rats by using multiple-barrel glass microelectrodes, combined with microiontophoretic pumps (with the central barrel used for recordings). Pyramidal neurons were identified according to the classical criteria (see Example 5, experimental procedures). FIGS. 9B and 9D show a summary of the effects as for FIGS. 9A and 9C, respectively. Bar histograms represent the mean (S.E.M.) percentage effect, calculated for each neuron with respect to its basal firing rate (i.e. 100% value), and the number in each column represents the number of neurons tested. *p<0.05 vs basal value, one-way ANOVA.
as §1
Involvement of endogenous 5-HT and hippocampal 5-HT1A receptors in the effect of 5-HT4 agonists. […] This interpretation is consistent with our own previous findings, showing that both acute and chronic (3-day) administration of the same compounds augment DRN 5-HT neuronal firing activity (Lucas and Debonnel, 2002; Lucas et al., 2005). It is also in keeping with observations from a single in vivo microdialysis study, where acute systemic injection of preferential 5-HT4 agonists increased hippocampal 5-HT efflux (Ge and Barnes, 1996). To further address this possibility, two additional series of experiments were conducted. First, the role of endogenous 5-HT was assessed by using the same protocol as above, in rats co-treated with RS 67333 (or its vehicle) and the 5-HT depleter para-chlorophenylalanine (pCPA). […] The ejection currents of quisqualate needed to activate CA3 pyramidal neurons were, in this case, similar to those used in controls (0 to −2 nA, FIG. 8C). We then tested the ability of a local application of WAY 100635, directly into the CA3 subfield through the use of microiontophoresis, to modify the effect of a 5-HT4 agonist. We chose not to use the previous protocol (i.e. chronic treatments), because, as shown above, the required quisqualate currents differ between the experimental groups. Even though all currents were balanced, it was not possible to exclude the possibility that the amount of quisqualate present in the vicinity of the electrode may have an influence on the quantity of WAY 100635 actually ejected, and/or on its ability to act on pyramidal neurons. For this reason, prucalopride was used acutely in naïve rats, at a dose known to induce a significant augmentation of DRN 5-HT neuronal activity (1000 μg/kg, i.v.) (Lucas and Debonnel, 2002). […]

[3] = Forced swimming test (FST)
Source text: The “forced swimming test” (FST) is a behavioural test for rodents, which predicts the efficacy of antidepressant drugs (Porsolt et al., 1977; Lucki, 1997). […] The widespread use of this model is largely a result of its ease of use, reliability across laboratories and ability to detect a broad spectrum of antidepressant agents. The test is based on the observation that rats, following initial escape-oriented movements (climbing and swimming), develop an immobile posture when placed in an inescapable cylinder of water. If they are replaced in the same testing apparatus 24 h later, they resume this immobile posture quickly. The immobility is thought to reflect either a failure of persistence in escape-directed behavior (i.e. behavioral despair) or the development of passive behavior that disengages the animal from active forms of coping with stressful stimuli. If antidepressant treatments are given between the two exposures, the subjects will actively persist engaging in escape-directed behaviors for longer periods of time than after vehicle treatment. This will be reflected by a reduction of immobility time, and by an increase of climbing attempts. […] The combination effect of a particular 5-HT4 agonist and a SSRI may be evaluated using the FST model.
Experiments were carried out in male Sprague-Dawley rats (Charles River, St Constant, Québec). We used the FST as previously described (Porsolt et al., 1977). Briefly, the rats experienced a pretest session followed 24 hours later by a test session. For both the pretest and the test sessions, conducted under low illumination (12 lx), the rats were placed in a plastic cylindrical tank (50 cm high by 20 cm in diameter) filled with water at […], with a depth of 40 cm, for which the hind limbs could not reach the tank floor. In all experiments, the pretest was carried out for 15 min and the test for 5 min in the same tank but only the last 4 min were analyzed. Following either pretest or test sessions, rats were dried with a towel and kept warm for 30 min before returning in their home cage. A digital camera recorded on line animal's behavior during the FST, and both time of immobility and climbing attempts were counted. Citalopram hydrobromide (10 mg/kg, i.p.) or paroxetine (10 mg/kg, i.p.) and prucalopride hydrochloride (2.5 mg/kg, i.p.) or RS 67333 hydrochloride (1.5 mg/kg, i.p.) were administered simultaneously 30 minutes before the test session. Animals were divided into 4 groups: vehicle/vehicle, 5-HT4 agonist/vehicle, vehicle/SSRI and 5-HT4 agonist/SSRI. For each compound, distilled water was used as the vehicle. All drug dosages refer to the free base.
Behavioral experiments. We used the FST as previously described (Porsolt et al., 1977). Briefly, rats experienced a pre-test session followed 24 hours later by a test session. For both the pre-test and the test sessions, conducted under low illumination (12 lx), the animals were placed in a plastic cylindrical tank (50 cm high by 20 cm in diameter) filled with water at […], with a depth of 40 cm, for which the hind limbs could not reach the tank floor. In all experiments, the pre-test was carried out for 15 min and the test for 5 min in the same tank but the last 4 min only were analyzed. Prucalopride (2.5 mg/kg, i.p.) and RS 67333 (1.5 mg/kg, i.p.) were administered 30 min before the test session. Following either pre-test or test sessions, rats were dried with a towel and kept warm for 30 min before returning in their home cage. A camera coupled with a computer recorded on line animal behavior during the FST through a specialized digital interface (Videotrack, ViewPoint, Lyon, France). This interface underscored on line the subtraction of video frames. Immobility time in FST was derived from the number of frames (every 40 ms) being below a predefined threshold over FST duration.

DRN 5-HT1A autoreceptors = assay: Citalopram i.v. dose-response on DRN 5-HT neuron firing (5-HT1A autoreceptor sensitivity) after 3-day RS 67333
Experimental: FIG. 7 is a dose-response curve illustrating the effect of cumulative intravenous doses of citalopram on DRN 5-HT neuron average (mean±S.E.M.) firing rate, expressed as percentage of basal activity, in rats treated with the selective 5-HT4 agonist RS 67333 (1.5 mg/kg/day, 3 days, n=5) or its vehicle (n=5). Single-cell extracellular recordings were performed in the DRN of chloral-hydrate anaesthetized rats by using single-barrel glass microelectrodes, and 5-HT neurons were identified according to the classical criteria (see Example 5, the experimental procedures). RS 67333 was administered through the use of osmotic minipumps, inserted subcutaneously in the region of the back. Recordings were performed with the minipumps still in place.
Extracellular recordings of DRN 5-HT neurons. Recordings were performed using single-barreled glass micropipettes. Electrodes were filled with a 2 M NaCl solution saturated with Fast Green FCF, resulting in an impedance of 2-5 MΩ. Rats were anaesthetized with chloral hydrate (400 mg/kg, i.p.) and placed in a stereotaxic frame. A burr hole was drilled on the midline 1 mm anterior to lambda. DRN 5-HT neurons were encountered over a distance of 1 mm starting immediately below the ventral border of the Sylvius aqueduct. These neurons were identified using the classical criteria: a slow (0.5-2.5 Hz) and regular firing rate and long-duration (0.8-1.2 ms) positive action potentials (Aghajanian, 1978). At the end of the experiments, a 25 μA cathodal current was passed through the recording electrode to leave a Fast Green deposit at the recording site. Animals were sacrificed with an i.v. overdose of chloral hydrate, and the brain removed. The site of recording was verified under microscope immediately after experiments.
Statistical analysis. The comparison between the two slopes in FIG. 7 was performed by using the GraphPad Prism software (Version 3.03, GraphPad Software Inc.). All other statistics were performed by using one-way ANOVAs, followed by the Dunnett's test when multiple comparisons were necessary.
Effect of a 3-day treatment with a 5-HT4 agonist on DRN 5-HT1A autoreceptors sensitivity. […] In rats treated with the selective 5-HT4 agonist RS 67333 (Eglen et al., 1995) (1.5 mg/kg/day), these values were shifted to the right, reaching 226±26 and 430 μg/kg, respectively. […] The acute inhibitory effect produced by a SSRI on DRN 5-HT neuronal activity results from increased extracellular levels of 5-HT, due to the blockade of its reuptake, and is selectively related to the stimulation of somatodendritic 5-HT1A autoreceptors (Hajos et al., 1999). The degree of inhibition induced by citalopram has therefore been used as a reliable index of their sensitivity (Arborelius et al., 1999, 2004; Sanchez et al., 2003). It appears that a 3-day treatment with a 5-HT4 receptor agonist is sufficient to desensitize 5-HT1A autoreceptors in the DRN.

[4] = microiontophoretic application, 1 nA
[5] = rats treated with RS 67333 1.5 mg/kg/day, 3 days

N[C@@H](Cc1ccc(Cl)cc1)C(=O)O (racemic) [pCPA, para-chlorophenylalanine]
quisqualate ejection currents needed to activate CA3 pyramidal neurons ([1]; rats co-treated with RS 67333 and pCPA): 0 to −2 nA | effect of pCPA on the facilitory action of WAY 100635 ([1]; rats treated with RS 67333, pCPA 150 mg/kg i.p. 72, 48 and 24 h before): totally abolished | effect of pCPA on CA3 neuron firing activity and response to WAY 100635 ([1]; vehicle group): no effect per se

COc1[nH]c2ccc(F)cc2c1C(=O)OCC1CCN(CCNS(C)(=O)=O)CC1 [GR 125487]
effect of GR 125487 on the facilitory effect of 3-day prucalopride or RS 67333 on DRN 5-HT firing rate (DRN 5-HT neurons; GR 125487 acute i.v., tracks from 30 min after injection): totally suppressed | effect of GR 125487 on its own on 5-HT neuronal activity (DRN 5-HT neurons; acute i.v., control rats): small, non statistically significant | effect of GR 125487 on the action of prucalopride ([2]; GR 125487 1000 μg/kg i.v.): abolished

COc1ccccc1N1CCN(CCN(C(=O)C2CCCCC2)c2ccccn2)CC1 [WAY 100635]
effect of WAY 100635 on CA3 pyramidal neurons ([1]; rat, in vivo, iv): no effect; also recorded: without any effect | effect of local WAY 100635 by itself [2, 4]: devoid of any effect | effect of local WAY 100635 on the inhibition by prucalopride [2, 4]: totally reversed

CN(C)CCCC1(c2ccc(F)cc2)OCc2cc(C#N)ccc21 (centres unmarked) [citalopram]
change of total time of immobility in FST ([3]; Example 3, single i.p. 30 min before test, citalopram or paroxetine 10 mg/kg, prucalopride 2.5 mg/kg, RS 67333 1.5 mg/kg): −34% | effect on immobility in FST ([3]; Example 4, citalopram 3 mg/kg i.p.): no effect | slope of the dose-response curve (DRN 5-HT1A autoreceptors; RS 67333 group (1.5 mg/kg/day, 3 days)): −0.25±0.02 | ED50 of inhibition of 5-HT neuronal firing rate (DRN 5-HT1A autoreceptors; naïve (vehicle) animals): 0.13 ± 0.03 mg/kg | ED100 of inhibition of 5-HT neuronal firing rate (DRN 5-HT1A autoreceptors; naïve (vehicle) animals): 0.28 mg/kg | ED50 of inhibition of 5-HT neuronal firing rate (DRN 5-HT1A autoreceptors; [5]): 0.226 ± 0.026 mg/kg | ED100 of inhibition of 5-HT neuronal firing rate (DRN 5-HT1A autoreceptors; [5]): 0.43 mg/kg | slope of the dose-response curve (DRN 5-HT1A autoreceptors; vehicle group): −0.34±0.03
